# From patent US20130281494A1, “POLYMORPHS OF N-(6-(4-CHLOROPHENOXY)HEXYL)-N'-CYANO-N"-(4-PYRIDYL)GUANIDINE, AND PREPARATION THEREOF AND USE THEREOF” (Tianjin Michele Sci-Tech Development Co., Ltd., priority 2010, published 2013)
# How the values were obtained:
# [1] = test system: human lung cancer tumor xenograft; details: cited from earlier work
# [2] = test system: human lung cancer and breast cancer cell lines; details: cited from earlier work
# [3] = test system: human tumor cells; details: nude mouse transplanted with human tumor cells; cited from earlier work
# [4] = Stability of polymorphs exposed to the air at room temperature for 12 months, purity by HPLC; type: physicochemical; details: for Original Purity: before exposure; for Purity (after exposed for 12 months): exposed to the air at room temperature for 12 months
# Description: The obtained purity results thereof were shown s follows.
# The purities were measured by using high performance liquid chromatography under the following conditions.
# Chromatographic Column. […] ODS (150*4.6 mm, 5μ)
# Phase A: 11.5% (v/v) of acetonitrile aqueous solution containing 0.01 mol/L of lauryl sodium sulfate and 0.0125 mol/L of dipotassium hydrogen phosphate (adjusted to pH 2.5 with phosphoric acid)
# Column Temperature: 40° C.;
# Detection Wavelength: 278 nm;
Structure (SMILES),antitumor activity in the nude mice model [1],antiproliferative activity in vitro [2],antitumor activity in vivo [3],Original Purity [4],Purity (after exposed for 12 months) [4]
N#C/N=C(\NCCCCCCOc1ccc(Cl)cc1)Nc1ccncc1 [N-(6-(4-chlorophenoxy)hexyl)-N′-cyano-N″-(4-pyridyl)guanidine],potent antitumor activity,high antiproliferative activity,highly potent antitumor activity,,
"N#C/N=C(\NCCCCCCOc1ccc(Cl)cc1)Nc1ccncc1 [Polymorph I, N-(6-(4-chlorophenoxy)hexyl)-N′-cyano-N″-(4-pyridyl)guanidine]",,,,98.01%,97.49%
"N#C/N=C(\NCCCCCCOc1ccc(Cl)cc1)Nc1ccncc1 [Polymorph II, N-(6-(4-chlorophenoxy)hexyl)-N′-cyano-N″-(4-pyridyl)guanidine]",,,,99.45%,99.36%
"N#C/N=C(\NCCCCCCOc1ccc(Cl)cc1)Nc1ccncc1 [Polymorph III, N-(6-(4-chlorophenoxy)hexyl)-N′-cyano-N″-(4-pyridyl)guanidine]",,,,97.83%,97.56%
"N#C/N=C(\NCCCCCCOc1ccc(Cl)cc1)Nc1ccncc1 [Polymorph IV, N-(6-(4-chlorophenoxy)hexyl)-N′-cyano-N″-(4-pyridyl)guanidine]",,,,99.59%,99.45%
"N#C/N=C(\NCCCCCCOc1ccc(Cl)cc1)Nc1ccncc1 [Polymorph V, N-(6-(4-chlorophenoxy)hexyl)-N′-cyano-N″-(4-pyridyl)guanidine]",,,,95.82%,95.02%
"N#C/N=C(\NCCCCCCOc1ccc(Cl)cc1)Nc1ccncc1 [Polymorph VI, N-(6-(4-chlorophenoxy)hexyl)-N′-cyano-N″-(4-pyridyl)guanidine]",,,,99.55%,99.28%
